Legend:
[1] = test system: Bifidobacterium bifidum DSM 20082; assay: Prebiotic effect: cell growth and metabolism of FGal by Bifidobacterium bifidum; assay type: cell-based; conditions: medium with 3 g/L purified FGal, 37° C., FIG. 8
Excerpt: (§1) To verify the prebiotic effect of FGal, the cell growth of strains such as Bifidobacterium longum subsp. infantis ATCC 15697 and Bifidobacterium bifidum DSM 20082 was monitored. In addition, to conduct a test for the capabilities of pathogenic microorganisms to ferment FGal, the cell growth of strains such as E. coli O1:K1:H7 and Salmonella enterica serovar typhimurium was monitored. At this time, the medium contained 10 g/L of BactoPeptone, 5 g/L of yeast extract, 2 g/L of K2HPO4 (anhydrous), 5 g/L of Na acetate (anhydrous), 2 g/L of NH4 citrate tribasic, 0.2 g/L of Mg sulfate heptahydrate, 0.05 g/L of Mn sulfate, 1 mL/L of Tween 80 (polysorbate 80), 0.5 g/L of cysteine, and 3 g/L of purified FGal, and the strains were cultured at 37° C.

[2] = test system: Bifidobacterium longum subsp. infantis ATCC 15697; assay: Prebiotic effect: cell growth and metabolism of FGal by Bifidobacterium longum subsp. infantis; assay type: cell-based; conditions: medium with 3 g/L purified FGal, 37° C., FIG. 8
Excerpt: as §1

[3] = test system: E. coli O1:K1:H7; assay: Capability of pathogenic microorganism to ferment FGal (E. coli); assay type: cell-based; conditions: medium with 3 g/L purified FGal, 37° C., FIG. 9
Excerpt: as §1

[4] = test system: Salmonella enterica serovar typhimurium; assay: Capability of pathogenic microorganism to ferment FGal (Salmonella); assay type: cell-based; conditions: medium with 3 g/L purified FGal, 37° C., FIG. 9
Excerpt: as §1

[5] = test system: hippocampal neurons; conditions: hippocampal neurons (brain neural cells) treated with FGal; stated as known; cited from earlier work

C[C@@H]1O[C@@H](O[C@H]2C(O)O[C@H](CO)[C@H](O)[C@@H]2O)[C@@H](O)[C@H](O)[C@@H]1O (stereo partly shown) [FGal, 2′-fucosylgalactose]
metabolism (fermentation) of FGal by the strain [1]: first decomposed FGal into fucose and galactose extracellularly, and then metabolized a small amount of galactose
metabolism (fermentation) of FGal by the strain ([1]; listed as 2-fucosylgalactose): extracellularly decomposes 2-fucosylgalactose into galactose and fucose, and then uses only galactose
metabolism (fermentation) of FGal by the strain [2]: decomposed FGal into galactose and fucose through intracellular fucosidase and used both
metabolism (fermentation) of FGal by the strain ([2]; listed as 2-fucosylgalactose): decomposes 2-fucosylgalactose into galactose and fucose through intracellular fucosidase and uses both
metabolism of FGal by pathogenic microorganism [3]: unable to metabolize
metabolism of FGal by pathogenic microorganism [4]: unable to metabolize
growth of nerve cells [5]: promotes the growth of nerve cells

From patent US11504386B2, “Preparation method for various novel fucosyl oligosaccharides and use thereof” (Korea University Research and Business Foundation, priority 2017, dated 2022)
